Counter-ions that a name gives are not always drawn.
Experiments:
[1] = Solubility in aqueous media (25° C., 24 h equilibration); format: physicochemical; settings: pH 9.0 borate buffer/8.6, target concentration 2 mg/mL
[2] = Dynamic Vapor Sorption (physical stability versus relative humidity); format: physicochemical
Experimental: The peaks found are: Wave number (in cm^−1): 3241(m), 2951(w), 2867(w), 1669(m), 1538(m), 1456(w), 1355(m), 1249(m), 1087(w), 979(w), 885(w), 797(w). […] Then 3 mL of heptane were added into the solution. White solid precipitated out. The solid was separated by suction filtration and dried at 40° C. under vacuum overnight. 380 mg of a fumarate salt amorphous form of 2-amino-N-(4-hydroxybicyclo[2.2.2]octan-1-yl)-5-(4-((1R,5S)-3-(tetrahydro-2H-pyran-4-yl)-3-azabicyclo[3.1.0]hexan-1-yl)phenyl)nicotinamide was obtained as a white solid. […] Resulting mixture was stirred at 50° C. for 0.5 hour and a clear solution was obtained. To the solution was slowly added a solution of 695.2 mg in 10 mL of acetone:water (95:5, v/v). Resulting suspension was gradually cooled to 25° C. and was kept stirring for 24 hours. Add 1.5 mL water to the suspension. The mixture was kept stirring at 50° C. for 12 hours and slowly cooled to 25° C. Solid was separated by suction filtration, washed with 10 mL acetone:water (90:10, v/v) once, and exposed to an ambient environment (about 25° C., 50% RH) overnight. […]

| SMILES | solubility [1] | physical stability over relative humidity (DVS) ([2]; 25° C., FIG. 15) | physical stability over relative humidity (DVS) ([2]; 40° C., FIG. 16) |
| --- | --- | --- | --- |
| Nc1ncc(-c2ccc([C@@]34C[C@@H]3CN(C3CCOCC3)C4)cc2)cc1C(=O)NC12CCC(O)(CC1)CC2 [Free form Modification HA, 2-amino-N-(4-hydroxybicyclo[2.2.2]octan-1-yl)-5-(4-((1R,5S)-3-(tetrahydro-2H-pyran-4-yl)-3-azabicyclo[3.1.0]hexan-1-yl)phenyl)nicotinamide] | <LOQ | – | – |
| Nc1ncc(-c2ccc([C@@]34C[C@@H]3CN(C3CCOCC3)C4)cc2)cc1C(=O)NC12CCC(O)(CC1)CC2 [Fumarate salt Modification HA, 2-amino-N-(4-hydroxybicyclo[2.2.2]octan-1-yl)-5-(4-((1R,5S)-3-(tetrahydro-2H-pyran-4-yl)-3-azabicyclo[3.1.0]hexan-1-yl)phenyl)nicotinamide] | – | physically stable at least from 0% to 90% RH | physically stable at least from 10% to 90% RH |
